Laboratory results published in ChEMBL document CHEMBL1131893, “Antitumor agents 201. Cytotoxicity of harmine and beta-carboline analogs” (1999).
Values after ≈ are worked out from the molar mass of the structure shown. Active and inactive are the calls of the source. The calls are words filed in the database; no cut-off is given here.

How the values were obtained:
[1] = tested on: MCF7; experiment: In vitro cytotoxic activity against MCF-7 (human breast cancer) cell line.; type: functional; details: read-out: ED50 (the source's name)
[2] = tested on: A549; experiment: In vitro cytotoxic activity was determined against lung carcinoma (A549) cell line; type: functional; details: Homo sapiens, read-out: ED50 (the source's name)
[3] = tested on: SK-MEL-2; experiment: In vitro cytotoxic activity was determined against melanoma cancer (SK-MEL-2) cell line; type: functional; details: Homo sapiens, read-out: ED50 (the source's name)
[4] = tested on: U-87 MG; experiment: In vitro cytotoxic activity was determined against glioblastoma (U-87-MG) cell line; Not active; type: functional, cell-based; details: Homo sapiens; U-87MG ATCC
[5] = tested on: 1A9; experiment: In vitro cytotoxic activity was determined against ovarian cancer (1A9) cell line; type: functional; details: Homo sapiens, read-out: ED50 (the source's name)
[6] = tested on: SAOS-2; experiment: In vitro cytotoxic activity was determined against osteosarcoma (SaOS-2) cell line; type: functional; details: Homo sapiens, read-out: ED50 (the source's name)
[7] = tested on: CAKI-1; experiment: In vitro cytotoxic activity was determined against renal cancer (CAKI-1) cell line; type: functional; details: Homo sapiens, read-out: ED50 (the source's name)
[8] = tested on: KB; experiment: In vitro cytotoxic activity was determined against epidermoid carcinoma of the nasopharynx (KB) cell line; type: functional; details: Homo sapiens, read-out: ED50 (the source's name)
[9] = tested on: U-87 MG; experiment: In vitro cytotoxic activity against U-87-MG (glioblastoma) cell line.; type: functional, U-87MG ATCC; details: Homo sapiens, read-out: ED50 (the source's name)
[10] = tested on: HOS; experiment: In vitro cytotoxic activity was determined against osteosarcoma ( HOS) cell line; type: functional; details: Homo sapiens, read-out: ED50 (the source's name)
[11] = tested on: HCT-8; experiment: In vitro cytotoxic activity was determined against ileocecal carcinoma (HCT-8) cell line; Not active; type: functional, cell-based; details: Homo sapiens
[12] = tested on: SK-MEL-2; experiment: In vitro cytotoxic activity was determined against melanoma cancer (SK-MEL-2) cell line; Not active; type: functional, cell-based; details: Homo sapiens
[13] = tested on: CAKI-1; experiment: In vitro cytotoxic activity was determined against renal cancer (CAKI-1) cell line; Not active; type: functional, cell-based; details: Homo sapiens
[14] = tested on: KB; experiment: In vitro cytotoxic activity was determined against epidermoid carcinoma of the nasopharynx (KB) cell line; Not active; type: functional, cell-based; details: Homo sapiens
[15] = tested on: MCF7; experiment: In vitro cytotoxic activity was determined against breast cancer (MCF-7) cell line; Not active; type: functional, cell-based; details: Homo sapiens
[16] = tested on: HCT-8; experiment: In vitro cytotoxic activity was determined against ileocecal carcinoma (HCT-8) cell line; type: functional; details: Homo sapiens, read-out: ED50 (the source's name)
[17] = tested on: HEL; experiment: In vitro cytotoxic activity was determined against embryonic lung fibroblast (HEL) cell line; type: functional; details: Homo sapiens, read-out: ED50 (the source's name)
[18] = tested on: KB; experiment: In vitro cytotoxic activity was determined against drug resistant tumor cell line KB-CPT (pleotrophic mechanism including level of topoisomerase I); type: functional; details: Homo sapiens, read-out: ED50 (the source's name)
[19] = tested on: KB; experiment: In vitro cytotoxic activity was determined against drug resistant tumor cell line KB-VIN (expressing P-glycoprotein); type: functional; details: Homo sapiens, read-out: ED50 (the source's name)
[20] = tested on: KB; experiment: In vitro cytotoxic activity was determined against drug resistant tumor cell line KB-7d (pleotrophic resistance including MRP multidrug resistant protein); type: functional; details: Homo sapiens, read-out: ED50 (the source's name)

| SMILES | EC50 [1] [µg/mL] | EC50 [2] [µg/mL] | EC50 [3] [µg/mL] | ED50 [4] | EC50 [5] [µg/mL] | EC50 [6] [µg/mL] | EC50 [7] [µg/mL] | EC50 [8] [µg/mL] | EC50 [9] [µg/mL] | EC50 [10] [µg/mL] | ED50 [11] | ED50 [12] | ED50 [13] | ED50 [14] | ED50 [15] | EC50 [16] [µg/mL] | EC50 [17] [µg/mL] | EC50 [18] [µg/mL] | EC50 [19] [µg/mL] | EC50 [20] [µg/mL] |
| --- | --- | --- | --- | --- | --- | --- | --- | --- | --- | --- | --- | --- | --- | --- | --- | --- | --- | --- | --- | --- |
| Cc1cc(O)n2c(n1)nc1ccccc12 | > 10 | > 10 | > 10 | inactive | > 10 | > 10 | > 10 | > 10 | – | – | – | – | – | – | – | – | – | – | – | – |
| Cc1nccc2c1[nH]c1cc(OC(C)C)ccc12 | 11.9 (≈ 49.5 µM) | 17 (≈ 70.7 µM) | – | – | 7.9 (≈ 32.9 µM) | – | 12.3 (≈ 51.2 µM) | 12.8 (≈ 53.3 µM) | 16.4 (≈ 68.2 µM) | 10.2 (≈ 42.4 µM) | inactive | inactive | – | – | – | – | – | – | – | – |
| CCCCCCCCCCCCCCCCOc1ccc2c(c1)[nH]c1c(C)nccc12 | – | 5 (≈ 11.8 µM) | – | – | 8 (≈ 18.9 µM) | – | – | – | – | 5 (≈ 11.8 µM) | inactive | – | inactive | inactive | inactive | – | – | – | – | – |
| CCCCCCOc1ccc2c(c1)[nH]c1c(C)nccc12 | 3.1 (≈ 11 µM) | 4.4 (≈ 15.6 µM) | > 5 | – | 1.9 (≈ 6.73 µM) | – | 2.2 (≈ 7.79 µM) | 2.4 (≈ 8.5 µM) | 4.2 (≈ 14.9 µM) | 2.5 (≈ 8.85 µM) | – | – | – | – | – | 3.8 (≈ 13.5 µM) | – | – | – | – |
| Br.COc1ccc2c3c([nH]c2c1)C(C)=NCC3 | 10 | 9.8 | > 10 | – | > 10 | 6.8 | > 10 | 9.7 | 9.8 | – | – | – | – | – | – | – | – | – | – | – |
| CCCCn1c2cc(OC)ccc2c2ccnc(C)c21 | 9.5 (≈ 35.4 µM) | 6 (≈ 22.4 µM) | – | – | 2.2 (≈ 8.2 µM) | – | 11 (≈ 41 µM) | 7.8 (≈ 29.1 µM) | 12.3 (≈ 45.8 µM) | – | – | – | – | – | – | > 20 | – | – | – | – |
| CCC[n+]1ccc2c([nH]c3cc(OC)ccc32)c1C.[I-] | – | 15 | – | – | 2 | – | 15 | 5 | – | – | – | – | – | – | – | – | 9.5 | – | – | – |
| COc1ccc2c(c1)[nH]c1c(C)nccc12 [HARMINE] | 10.5 (≈ 49.5 µM) | 2.4 (≈ 11.3 µM) | 18.5 (≈ 87.2 µM) | – | 1.6 (≈ 7.54 µM) | – | 1.9 (≈ 8.95 µM) | 2.2 (≈ 10.4 µM) | 14.5 (≈ 68.3 µM) | – | – | – | – | – | – | – | 1.9 (≈ 8.95 µM) | 4.3 (≈ 20.3 µM) | 2.5 (≈ 11.8 µM) | 3.7 (≈ 17.4 µM) |
| COc1ccc2c3c([nH]c2c1)C(C)N(N=O)CC3 (stereo not drawn) | > 10 | > 10 | > 10 | – | > 10 | > 10 | > 10 | 4.7 (≈ 19.2 µM) | > 10 | – | – | – | – | – | – | – | – | – | – | – |
| COc1cc2[nH]c3c(C)nccc3c2cc1Br | 14.6 (≈ 50.1 µM) | 13.6 (≈ 46.7 µM) | > 20 | – | 2.3 (≈ 7.9 µM) | – | 6.7 (≈ 23 µM) | 7.9 (≈ 27.1 µM) | 14 (≈ 48.1 µM) | 6.5 (≈ 22.3 µM) | – | – | – | – | – | 16 (≈ 55 µM) | – | – | – | – |
| CCOc1ccc2c(c1)[nH]c1c(C)nccc12 | 5 (≈ 22.1 µM) | 5 (≈ 22.1 µM) | 9.5 (≈ 42 µM) | – | 8 (≈ 35.4 µM) | 20 (≈ 88.4 µM) | 9 (≈ 39.8 µM) | 10.2 (≈ 45.1 µM) | – | – | – | – | – | – | – | – | – | – | – | – |
| CCCCCCCCCCOc1ccc2c(c1)[nH]c1c(C)nccc12 | 3.8 (≈ 11.2 µM) | 1.2 (≈ 3.55 µM) | – | – | 1.4 (≈ 4.14 µM) | – | 5 (≈ 14.8 µM) | 2 (≈ 5.91 µM) | 5.4 (≈ 16 µM) | 6.7 (≈ 19.8 µM) | – | – | – | – | – | 4.1 (≈ 12.1 µM) | – | – | – | – |
| COc1ccc2c(c1)[nH]c1c(C)[n+](C)ccc12.[I-] | 6.2 | 0.9 | 8.4 | – | 7 | 8.2 | 8.9 | 7.2 | 6.2 | – | – | – | – | – | – | – | – | – | – | – |
| CCCCCCCCC1NC(C(=O)O)Cc2c1[nH]c1cc(OC)ccc21 (stereo not drawn) | – | > 20 | – | – | > 20 | – | > 20 | > 20 | – | – | – | – | – | – | – | – | – | – | – | – |
| Br.COc1cc2[nH]c3c(C)nccc3c2cc1Br | 5.6 | 3.9 | 5 | – | 1.9 | 6.8 | 7.3 | 3.5 | 6.7 | – | – | – | – | – | – | – | – | – | – | – |
| CCC(CC)C1NC(C(=O)O)Cc2c1[nH]c1cc(OC)ccc21 (stereo not drawn) | – | > 20 | – | – | > 20 | – | > 20 | 20 (≈ 63.2 µM) | – | – | – | – | – | – | – | – | > 20 | – | – | – |
| COc1ccc2c3ccn(C)c(C)c-3nc2c1 | 5.6 (≈ 24.7 µM) | 2.7 (≈ 11.9 µM) | 10 (≈ 44.2 µM) | – | 7 (≈ 30.9 µM) | 9.6 (≈ 42.4 µM) | 7.8 (≈ 34.5 µM) | 6.4 (≈ 28.3 µM) | 9 (≈ 39.8 µM) | – | – | – | – | – | – | – | – | – | – | – |
| Cc1nccc2c1[nH]c1cc(OC(=O)C34CCC(C)(C(=O)O3)C4(C)C)ccc12 (stereo not drawn) | 20 (≈ 52.9 µM) | 17 (≈ 44.9 µM) | > 20 | – | 19.5 (≈ 51.5 µM) | > 20 | > 20 | > 10 | – | – | – | – | – | – | – | – | – | – | – | – |
| COc1ccc2c3ccnc(C)c3n(C)c2c1 | 4.3 (≈ 19 µM) | 4.2 (≈ 18.6 µM) | – | – | 1.8 (≈ 7.95 µM) | – | 5 (≈ 22.1 µM) | 2.2 (≈ 9.72 µM) | 7.8 (≈ 34.5 µM) | – | – | – | – | – | – | > 20 | – | – | – | – |
| COS(=O)(=O)O.Cc1nccc2c1[nH]c1ccccc12 | – | > 20 | – | – | > 20 | – | > 20 | 10.5 | – | – | – | – | – | – | – | – | > 20 | – | – | – |
| Cc1nccc2c1[nH]c1ccccc12 [HARMAN] | 19 (≈ 104 µM) | 9.3 (≈ 51 µM) | > 20 | – | 6.1 (≈ 33.5 µM) | – | 8 (≈ 43.9 µM) | 8.9 (≈ 48.8 µM) | 19 (≈ 104 µM) | – | – | – | – | – | – | – | 9.8 (≈ 53.8 µM) | 15 (≈ 82.3 µM) | 17.5 (≈ 96 µM) | 16.5 (≈ 90.5 µM) |
| COc1ccc2c(c1)[nH]c1c(/C=C/c3ccc([N+](=O)[O-])cc3)nccc12 | 1.2 (≈ 3.47 µM) | 0.9 (≈ 2.61 µM) | 1 (≈ 2.9 µM) | – | 0.3 (≈ 0.869 µM) | 0.9 (≈ 2.61 µM) | 7 (≈ 20.3 µM) | 0.5 (≈ 1.45 µM) | 1.2 (≈ 3.47 µM) | – | – | – | – | – | – | – | – | – | – | – |
| CCCn1c2cc(OC)ccc2c2cc[n+](C)c(C)c21.[I-] | > 20 | 4 | 18 | – | < 1.3 | – | 9.2 | 1.8 | > 20 | – | – | – | – | – | – | – | 15 | 3 | > 40 | 35.5 |
| Cc1[nH]ccc2c1[nH]c1cc(=O)ccc12 [HARMOL] | 9.2 (≈ 46.4 µM) | 6.5 (≈ 32.8 µM) | – | – | 3.8 (≈ 19.2 µM) | – | 9.2 (≈ 46.4 µM) | 4.4 (≈ 22.2 µM) | 4.2 (≈ 21.2 µM) | – | – | – | – | – | – | – | – | – | – | – |
| CC(=O)Oc1ccc2c(c1)[nH]c1c(C)nccc12 | 7.5 (≈ 31.2 µM) | 4.3 (≈ 17.9 µM) | 5 (≈ 20.8 µM) | – | 4.5 (≈ 18.7 µM) | > 20 | 10.2 (≈ 42.5 µM) | 19.5 (≈ 81.2 µM) | – | – | – | – | – | – | – | – | – | – | – | – |
| CCn1c2cc(OC)ccc2c2ccnc(C)c21 | 5.3 (≈ 22.1 µM) | 4.2 (≈ 17.5 µM) | – | – | 1.8 (≈ 7.49 µM) | – | 7.4 (≈ 30.8 µM) | 1.8 (≈ 7.49 µM) | 7.4 (≈ 30.8 µM) | – | – | – | – | – | – | > 20 | – | – | – | – |
